15 molecules from ChEMBL document CHEMBL5344416, “Phenothiazines as anti-cancer agents: SAR overview and synthetic strategies” (Eur J Med Chem, 2023) can be followed below.

In data set [1] the test system is MCF7. The experiment in a line: Anticancer activity against human MCF7 cells assessed as cell growth inhibition incubated for 48 hrs by MTT assay. The following applies: MCF7, 48 h. The class given is functional, cell-based. On the technique in general: Tetrazolium assays rely on reduction of a dye to a coloured formazan, in cell work by metabolically active cells.

Data set [2] deals with SNB-19. Kind of data set: Anticancer activity against human SNB-19 cells assessed as reduction in cell growth by SRB assay. The class given is functional, cell-based. On the technique in general: The SRB assay estimates cell density from bound dye.
Data set [3] deals with TC-32. The experiment in a line: Cytotoxicity against human TC-32 cells assessed as reduction in cell viability. The class given is functional, cell-based.
Data set [4] concerns MCF7. Kind of data set: Cytotoxicity against human MCF7 cells assessed as reduction in cell growth. It counts as functional, cell-based.
Data set [5] in a line: Cytotoxicity against human HFF-1 cells assessed as reduction of cell viability incubated for 72 hrs by CCK-8 assay. The class given is toxicity, cell-based.
Data set [6] has as its system TC-32. Kind of data set: Cytotoxicity against human TC-32 cells assessed as reduction in cell viability incubated for 48 hrs by CellTiter-Blue reagent based […] assay. It counts as functional. The settings on record: TC-32, 48 h.
The subject of data set [7] is SNB-19. Kind of data set: Antiproliferative activity against human SNB-19 cells assessed as cell growth inhibition incubated for 72 hrs by WST-1 assay. It counts as functional, cell-based. The following applies: SNB-19, 72 h.
Data set [8] relates to T47D. The experiment in a line: Antiproliferative activity against human T47D cells assessed as cell growth inhibition after 48 hrs by SRB assay. The class given is functional, cell-based.
Data set [9] relates to MKN-28. The experiment in a line: Antiproliferative activity against human MKN-28 cells assessed as reduction in cell viability by MTT assay. It counts as functional, cell-based.
For data set [10], the system named is MGC-803. The experiment in a line: Antiproliferative activity against human MGC-803 cells assessed as reduction in cell growth by MTT assay. It counts as functional, cell-based.
In data set [11] the test system is MKN-45. Kind of data set: Antiproliferative activity against human MKN-45 cells assessed as cell growth inhibition by MTT assay. The class given is functional, cell-based.
Data set [12] relates to MCF7. The experiment in a line: Antiproliferative activity against human MCF7 cells assessed as cell growth inhibition by MTT assay. The class given is functional, cell-based.
Data set [13] has as its system SW1990. Kind of data set: Anticancer activity against human SW1990 cells assessed as reduction in cell viability incubated for 72 hrs by MTT assay. The class given is functional, cell-based. The settings on record: SW1990, 72 h.
Data set [14] concerns ASPC1. Kind of data set: Anticancer activity against human ASPC1 cells assessed as reduction in cell growth incubated for 72 hrs by MTT assay. The class given is functional, cell-based. The settings on record: ASPC1, 72 h.
Data set [15] can be described thus: Antioxidant activity assessed as DPPH radical scavenging activity incubated for 30 mins. The class given is functional.
Data set [16] relates to SNB-19. Kind of data set: Anticancer activity against human SNB-19 cells assessed as reduction in cell growth incubated for 48 hrs by SRB assay. It counts as functional, cell-based. The following applies: SNB-19, 48 h.
The subject of data set [17] is TC-32. The experiment in a line: Anticancer activity against human TC-32 cells assessed as reduction in cell growth incubated for 48 hrs by SRB assay. It counts as functional, cell-based. The following applies: TC-32, 48 h.
Data set [18] relates to MDA-MB-231. Kind of data set: Anticancer activity against human MDA-MB-231 cells assessed as reduction in cell viability measured after 72 hrs by MTT assay. The class given is functional, cell-based. The following applies: MDA-MB-231, 72 h.
The test system of data set [19] is SNB-19. Kind of data set: Antiproliferative activity against human SNB-19 cells assessed as reduction in cell proliferation incubated for 72 hrs by WST-1 assay. It counts as functional, cell-based. The settings on record: SNB-19, 72 h.
Data set [20] concerns TC-32. The experiment in a line: Antiproliferative activity against human TC-32 cells assessed as reduction in cell proliferation incubated for 72 hrs by WST-1 assay. It counts as functional, cell-based. The settings on record: TC-32, 72 h.
The test system of data set [21] is MDA-MB-231. The experiment in a line: Antiproliferative activity against human MDA-MB-231 cells assessed as reduction in cell proliferation incubated for 72 hrs by WST-1 assay. The class given is functional, cell-based. The settings on record: MDA-MB-231, 72 h.
For data set [22], the system named is U-87 MG. Kind of data set: Antiproliferative activity against human U87 cells assessed as reduction in cell viability incubated for 48 hrs by MTT assay. The class given is functional, cell-based, U-87MG ATCC.
In data set [23] the test system is U-251. The experiment in a line: Antiproliferative activity against human U-251 cells assessed as reduction in cell viability incubated for 48 hrs by MTT assay. The following applies: U-251, 48 h. It counts as functional, cell-based.
The subject of data set [24] is CT26. Kind of data set: Antitumor activity against mouse CT26 cells assessed as reduction in cell viability incubated for 4 hrs by MTT assay. The class given is functional, cell-based. The settings on record: CT26, 4 h.
In data set [25] the test system is CT26. The experiment in a line: Antitumor activity against mouse CT26 cells assessed as tumor growth inhibition incubated for 4 hrs by MTT assay relative to control. It counts as functional. Further details: scale not given: the % may be the effect or the level left.
Data set [26] deals with MCF7. The experiment in a line: Antitumor activity against human MCF7 cells assessed as inhibition of cell growth at 1000 ug measured after 48 hrs by spectrophotometric analysis relative to control. The class given is functional. More on the design: scale not given: the % may be the effect or the level left. The following applies: dose 1000 µg.
The test system of data set [27] is MCF7. The experiment in a line: Antitumor activity against human MCF7 cells assessed as increase in LDH level at 1000 ug relative to control. The class given is functional. The following applies: dose 1000 µg.
Data set [28] relates to A549. Kind of data set: Anticancer activity against human A549 cells assessed as inhibition of cell proliferation measured after 48 hrs by MTT assay. It counts as functional, cell-based. The following applies: A549, 48 h.
The test system of data set [29] is HepG2. The experiment in a line: Anticancer activity against human HepG2 cells assessed as inhibition of cell proliferation measured after 48 hrs by MTT assay. The class given is functional, cell-based. The settings on record: HepG2, 48 h.
The subject of data set [30] is MCF7. Kind of data set: Anticancer activity against human MCF7 cells assessed as inhibition of cell growth incubated for 48 hrs by MTT assay. The following applies: MCF7, 48 h. It counts as functional, cell-based.
Data set [31] relates to MCF7. Kind of data set: Cytotoxicity against human MCF7 cells assessed as reduction in cell viability by MTT assay. It counts as functional, cell-based.
A short description of data set [32]: Antioxidant activity assessed as DPPH radical scavenging activity. The class given is functional. For orientation: Loss of DPPH colour is used to gauge radical scavenging.
A short description of data set [33]: Antioxidant activity assessed as ABTS radical scavenging activity. The class given is functional.

The IC50 is the midpoint of a concentration-inhibition curve. As for `c1cnc2c(c1)Nc1ccncc1S2`, the IC50 in [1] was 8.3 µM; in data set [2] it was 0.58 µM; in data set [3], 0.72 µM; in data set [4], 0.46 µM. Besides, in [5], the concentration for half-maximal inhibition (IC50) at 72 h is 38.6 µM.
Take `CN1CCN(CC#CCN2c3ccncc3Sc3ccncc32)CC1`: the IC50 in data set [6] stood at 35 µM; in data set [7] it was 21.2 µM; in data set [8], 9.6 µM.
With `COc1ccc(-n2cc(CN3c4ccccc4Sc4ccccc43)nn2)c([N+](=O)[O-])c1`, the concentration for half-maximal inhibition (IC50) in [9] stood at 2.7 µM; in data set [10], 1.2 µM; in data set [11], 3.5 µM.
Take `CN(C)CCN1CCN(CCCN2c3ccccc3Sc3ccc(C(F)(F)F)cc32)CC1`: the 50% inhibitory concentration (IC50) in [12] is 0.42 µM.
With `CCCCCN1c2ccccc2Sc2cc(/C=C(\C#N)C(N)=O)ccc21`, the results for the concentration for half-maximal inhibition (IC50) in data set [13], in [14] and in [15] were 13.3 µM, 25.3 µM and 37.3 µM, respectively.
Take `CCN(C)CC#CCN1c2ccncc2Sc2ncccc21`: the IC50 in [16] was 0.11 µM; in data set [17], 1.53 µM; in [18], 2.81 µM.
Regarding `C#CCN1c2ncccc2Sc2cccnc21`, the IC50 was 3.85 µM in data set [19], 3.37 µM in data set [20] and 14.1 µM in [21].
As to `CSc1ccc2c(c1)N(CCCn1ccc(=O)[nH]c1=O)c1ccccc1S2`, the half-inhibitory concentration (IC50) in [1] was determined as 1.35 µM.
For `O=[N+]([O-])c1ccccc1S(=O)(=O)N1c2ccccc2Sc2ccc(Cl)cc21`, the values for the half-maximal inhibitory concentration (IC50) in data set [22] and in data set [23] were 5.12 µM and 9.29 µM, respectively.
As to `CCN(CC)CC#CCN1c2ccncc2Sc2ncccc21`, the IC50 in [16] is 0.11 µM; in data set [17] it was 0.54 µM; in [18], 6.32 µM.
Turning to `COCCOCCOCCOCCOCCOCCOCCOCCOCCOCCOCCOC(=O)CN1c2ccccc2Sc2ccccc21`, the IC50 in data set [24] was determined as 286 µM. Also, the Activity in data set [25] was 92%.
As to `CN1c2ccccc2Sc2cc(/C=N/NC(=O)Cn3c4ccccc4c4ccccc43)ccc21`, the Activity in [26] and in data set [27] was 48% each time.
In the case of `COc1ccc(N/N=C2/SC(N/N=C(\C)c3ccc4c(c3)Nc3ccccc3S4)=NC2=O)cc1`, the concentration for half-maximal inhibition (IC50) in data set [28] and in data set [29] was 5.37 µM each time.
Take `COCCSc1nnc(CN2c3ccccc3Sc3ccc(Cl)cc32)s1`: in data set [30], the IC50 turned out to be 3.45 µM.
For the molecule `C/C(=N\c1ccc(/N=N/c2ccccc2)cc1)c1ccc2c(c1)Nc1ccccc1S2`, the half-inhibitory concentration (IC50) in data set [31] was 34.6 µM; in data set [32] it was 37.3 µM; in [33], 41.1 µM.
